Reference: the supplement of paper PMC6470124

Columns and labels:
[1] = LC retention time (Atlantis T3, 5-95% MeOH gradient, 0.1% formic acid); higher = more retained / less polar
Summary of the method: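 Retention times were recorded for reference standards (purity ≥ 95%) on a polar reversed-phase C18 column (Atlantis T3, 3 × 150 mm, 3 μm) at 0.3 mL/min. Elution used water and methanol, each with 0.1% formic acid, in a gradient from 5 to 95% methanol over 17.5 min. Detection was by high-resolution tandem mass spectrometry on a QExactive Plus, with positive and negative electrospray in separate runs. Peaks were found and integrated in TraceFinder (5 ppm tolerance, at least three points per peak) and then checked by hand.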

[2] = absolute recovery over mixed-bed multilayer solid-phase extraction; higher = better recovery; settings: enrichment method: SPE
Summary of the method: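 Wastewater (100–250 mL, adjusted to pH 6.5 and glass-fibre filtered) or 1000 mL unfiltered nanopure water was loaded on a three-layer mixed-bed cartridge and eluted with basic then acidic ethyl acetate/methanol. Standards were spiked before extraction, after it, or not at all, at 200 ng/L (water) or 1000 ng/L (wastewater), with class exceptions. Internal standards were added afterwards, then LC-HRMS/MS ran in both ionisation modes. Absolute recovery compares background-corrected response ratios of pre- versus post-spiked samples, averaged over at least two replicates.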

[3] = absolute recovery over vacuum-assisted evaporative concentration; higher = better recovery; settings: enrichment method: VEC
Summary of the method: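 Samples of influent (6 mL), effluent (15 mL) and surface or nanopure water (60 mL) were spiked with standards before or after concentration, or left unspiked, at 200 ng/L (nanopure/surface) or 1000 ng/L (wastewater), adjusted by class and compound. Concentration was by evaporation at 55 °C and 20 mbar to about 0.3 mL, followed by adjustment to 0.4 mL and centrifugation. Internal standards were then added for LC-HRMS/MS analysis. Absolute recovery was (response ratio pre − unspiked)/(post − unspiked) × 100, using averages of ≥ 2 replicates.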

Structure (SMILES) | LC retention time [1] | absolute recovery ([2]; nanopure water) | absolute recovery ([2]; surface water) | absolute recovery ([2]; wastewater effluent) | absolute recovery ([2]; wastewater influent) | absolute recovery ([3]; wastewater effluent) | absolute recovery ([3]; wastewater influent)
CC(C)[NH+](CCC(C(N)=O)(c1ccccc1)c1ccccn1)C(C)C (centres undefined) [Disopyramide] | 12.2 min | 90% | 94.4% | 92% | 104% | 98.1% | 106%
NC(=O)Nc1ccc(Cl)c(Cl)c1 [Diuron-desdimethyl (=1-(3-4-Dichlorophenyl)urea)] | 18 min | 98.3% | 100% | 96.4% | 94.9% | 101% | 102%
CNC(=O)Nc1ccc(Cl)c(Cl)c1 [Diuron-desmonomethyl (=DCPMU)] | 18.6 min | 99.4% | 112% | 102% | 86.1% | 105% | 106%
CN(C)C(=O)Nc1ccc(Cl)c(Cl)c1 [Diuron] | 18.8 min | 97.7% | 98.5% | 92.1% | 94.1% | 109% | 103%
CCCCCCCCCCCC[N+](C)(C)C [Dodecyltrimethylammonium] | 17.9 min | 84.2% | 114% | 69.5% | 33.9% | 99.1% | –
COc1cc2[nH+]c(N3CCN(C(=O)C4COc5ccccc5O4)CC3)nc(N)c2cc1OC (centres undefined) [Doxazosin] | 15.3 min | 92.5% | 114% | 108% | 56.7% | 107% | 107%
COc1cccc2c1C(=O)c1c(O)c3c(c(O)c1C2=O)CC(O)(C(=O)CO)CC3OC1CC([NH3+])C(O)C(C)O1 (centres undefined) [Doxorubicin] | 15.8 min | 40.5% | 19.3% | 28.1% | 53.3% | 38.8% | 45.5%
COc1cccc2c1C(=O)c1c(O)c3c(c(O)c1C2=O)CC(O)(C(O)CO)CC3OC1CC([NH3+])C(O)C(C)O1 (centres undefined) [Doxorubicinol] | 15.2 min | 70.4% | 75.4% | 73.7% | 79.4% | 60.8% | 65.4%
C[NH+](C)CCOC(C)(c1ccccc1)c1ccccn1 (centres undefined) [Doxylamine] | 10.8 min | 84.3% | 91.3% | 94.8% | 85% | 120% | 109%
CCCCc1oc2ccc(NS(C)(=O)=O)cc2c1C(=O)c1ccc(OCCC[NH+](CCCC)CCCC)cc1 [Dronedaron] | 17.5 min | 71.7% | 87.9% | 84.1% | – | 44.9% | 101%
OCC(O)C[NH+]1CCN(c2ccccc2)CC1 (centres undefined) [Dropropizine] | 9.49 min | 108% | 108% | 99.5% | 86.7% | 106% | 98.7%
CC=C1[NH+](C)C(C)CC1(c1ccccc1)c1ccccc1 (centres undefined) [EDDP (=2-Ethylidene-1-5-dimethyl-3-3-diphenylpyrrolidin)] | 14.4 min | 33.8% | 65% | 60.2% | 75.8% | 95% | 82.3%
O=C1Nc2ccc(Cl)cc2C(C#CC2CC2)(C(F)(F)F)O1 (centres undefined) [Efavirenz] | 20.5 min | 102% | 104% | 92.4% | 134% | 105% | 124%
Nc1nc(=O)n(C2CSC(CO)O2)cc1F (centres undefined) [Emtricitabine] | 9.72 min | 75.9% | 87.2% | 84.2% | 85.2% | 103% | 101%
C[NH2+]C(C)C(O)c1ccccc1 (centres undefined) [Ephedrin] | 9.53 min | 93.4% | 93.3% | 89.3% | 89.4% | 107% | 99%
Fc1ccc(C2(Cn3cncn3)OC2c2ccccc2Cl)cc1 (centres undefined) [Epoxiconazol] | 20.3 min | 100% | 95.4% | 93.9% | 92.7% | 103% | 99.3%
CCCCc1[nH+]cc(C=C(Cc2cccs2)C(=O)[O-])n1Cc1ccc(C(=O)[O-])cc1 [Eprosartan] | 14.6 min | 97.1% | 93.4% | 93.6% | 94.2% | 103% | 96.1%
CCC1OC(=O)C(C)C(OC2CC(C)(OC)C(O)C(C)O2)C(C)C(OC2OC(C)CC([NH+](C)C)C2O)C(C)(O)CC(C)C(=O)C(C)C(O)C1(C)O (centres undefined) [Erythromycin] | 16.9 min | 50.1% | 69.3% | 78.3% | 83.3% | 113% | –
CCC(CO)NCC[NH2+]C(CC)CO (centres undefined) [Ethambutol] | 3.04 min | 75.8% | 64.3% | 66.3% | 66.2% | 102% | 124%
CC1(C)C(=O)Oc2ccc(OS(C)(=O)=O)cc21 [Ethofumesat-2-keto] | 15.2 min | 69.5% | 50.8% | 76.7% | 88.3% | 101% | 82.2%
CCOC1Oc2ccc(OS(C)(=O)=O)cc2C1(C)C (centres undefined) [Ethofumesat] | 19.2 min | 98.7% | 102% | 96.1% | 92% | 105% | 94%
CCc1cccc2c3c([nH]c12)C(CC)(CC(=O)[O-])OCC3 (centres undefined) [Etodolac] | 20.8 min | 86.6% | 80.5% | 82.3% | 93.5% | 103% | 99.8%
C=C1CC2C(CCC3(C)C(=O)CCC23)C2(C)C=CC(=O)C=C12 (centres undefined) [Exemestan] | 19.6 min | 91.6% | 96% | 93.2% | 98.3% | 100% | 71.7%
C=CCC1C=C(C)CC(C)CC(OC)C2OC(O)(C(=O)C(=O)N3CCCCC3C(=O)OC(C(C)=CC3CCC(O)C(OC)C3)C(C)C(O)CC1=O)C(C)CC2OC (centres undefined) [FK-506 (=Tacrolimus)] | 22.2 min | 82.7% | 66.5% | 53.5% | – | 56.2% | –
O=C([O-])C[N-]S(=O)(=O)C(F)(F)C(F)(F)C(F)(F)C(F)(F)C(F)(F)C(F)(F)C(F)(F)C(F)(F)F [FOSAA] | 22.2 min | 60.5% | 85.9% | 76.6% | 32.2% | 117% | –
